Patent US9453017B2, “Antiviral therapies with phospholipase D inhibitors” (Vanderbilt University, priority 2011, dated 2016)
Like-named read-outs stand apart in the source and are kept apart here.

Tests used:
A/Puerto Rico/8/1934 = assay: Traditional plaque assay in MDCK cells (FIG. 14a); details: 10 μM, vs DMSO treated control
[1] = system: A549 cells infected with A/Puerto Rico/8/1934; assay: Viral nucleoprotein (NP) / Rab11 trafficking (FIG. 8g); assay type: cell-based, human; details: 5 μM; A/Puerto Rico/8/1934, MOI=5; 16 hr infection
Text: (§1) Samples were fixed in 4% formaldehyde, permeabilized with 0.3% Triton X-100, and then exposed to antisera targeting proteins of interest and corresponding fluorescent secondary antibodies alongside DAPI to visualize nuclei. Focal infections were imaged and processed using a Nikon C1Si and NIS Elements software. Confocal images were captured with a Zeiss LSM 510 NLO Meta and analyzed with Zeiss Zen 2011 software and ImageJ.
(§2) (i) Quantitation of the area of positive Mx1 staining, n=4 for DMSO and n=5 for drug treatments. ANOVA and Dunnett's post test were used to determine significance of changes when PLD inhibitors were used, and a t-test was used when cells were treated with alcohol, * p<0.05, ** p<0.01, ***, p<0.001, **** p<0.0001. Data in (b, d, f, i) is mean±SEM, n=3 fields of at least 15 cells.

PR8 influenza A virus = assay: In vivo mouse model of influenza infection, 30 mg/kg (FIGS. 3, 4); details: 30 mg/kg intraperitoneal twice daily for 7 days; for survival of infected mice: FIG. 4
Protocol: A mouse model of influenza infection was used to test the in vivo efficacy of representative disclosed compounds. Compounds were administered at 30 mg/kg and the mice were infected with PR8 influenza A virus. Briefly, C57BL/6J mice (female 8- to 10-wk-old; purchased from The Jackson Laboratory and held under pathogen-free conditions at St. Jude Children's Research Hospital) were used in these studies. Mice were anesthetized by i.p. injection with Avertin (2,2,2-tribromethanol; prepared in-house) before intranasal (i.n.) infection with 80% infective dose (EID80) units of the PR8 influenza A virus in PBS. Mice were administered either the indicated PLD inhibitor (30 mg/kg) or vehicle intraperitoneal starting at 24 hr per exposure. Compounds were administered twice daily for 7 days and subjects were measured for changes in body weight (FIG. 3) or survival (FIG. 4) as a function of PLD inhibitor administration. Mice were sacrificed if moribund.

[2] = system: clathrin in A549 cells infected with A/Brisbane/59/07; assay: Diffuse infection model, clathrin accumulation (FIG. 8a-b); assay type: cell-based, human
Protocol: (§3) A549 cells were seeded onto chamber slides and allowed to adhere overnight. The cells were washed with PBS, and serum-free medium containing treatment was added to the cells. After one hour of treatment, the medium was removed and replaced with serum-free medium containing treatment and 0.05 MOI influenza virus. The infected cultures were kept at 4° C. for 15 minutes before being incubated at 37° C. At appropriate times, cultures were removed and fixed with […] and processed for microscopy as above. Z stacks were acquired using a Zeiss LSM 510 microscope, and images were analyzed with ImageJ (Java-based software available from NIH). Data was processed as above.
as §1, §2

[3] = system: PR8 (A/Puerto Rico/8/1934); assay: Lethal influenza infection in mice, JWJ 13 mg/kg (FIG. 9); assay type: in vivo, mouse
influenza virus = assay type: cell-based; details: 10 μM compound; compared to vehicle; FIG. 2
[4] = system: A/California/04/2009 (H1N1); assay type: cell-based, influenza virus
[5] = system: RAB5 and CD63 in A549 cells infected with A/California/04/2009; assay: Diffuse infection model, RAB5 and CD63 recruitment (FIG. 8c-f); assay type: cell-based, human
Protocol: as §3, §1, §2

phospholipase D (PLD) = assay type: cell-based, human; details: 10 μM; A549 cells infected with California/04/2009 at 1 MOI; 6 hours post-infection; FIG. 6
[6] = system: A/Brisbane/59/2007 (H1N1); assay type: cell-based, influenza virus; details: for infected cells, A/Brisbane/59/2007: 10 μM, vs DMSO vehicle
[7] = Pharmacokinetics after intraperitoneal injection in mice (FIG. 15); assay type: in vivo; details: mouse
Protocol: The pharmacokinetic behavior of a representative disclosed PLD inhibitor of the present invention was assessed following intraperitoneal administration in a mouse model. Briefly, mice were administered a single dose of the PLD inhibitor VU0364739 (10 mg/kg) by intraperitoneal injection. Tissue (brain, lung, and liver) and plasma samples were isolated following euthanizing animals (N=2 for each time point) at the indicated time points (see FIG. 15). The samples were flash frozen and stored at −80° C. Analysis was carried out by LC-MS/MS following extraction.

influenza virus strains = assay type: cell-based
[8] = 50 minutes post-infection, 0.05 MOI, vs DMSO
[9] = 80 minutes post-infection, 0.05 MOI, vs DMSO
[10] = 10 μM PLD inhibitor, vs DMSO control

## O=C(NCCN1CCC2(CC1)C(=O)NCN2c1cccc(F)c1)c1ccc2ccccc2c1 [No. 1, N-(2-(1-(3-fluorophenyl)-4-oxo-1,3,8-triazaspiro[4.5]decan-8-yl)ethyl)-2-naphthamide]
A/Puerto Rico/8/1934
  plaque formation: less plaque formation
[1]
  viral nucleoprotein (NP) trafficking: trafficking was disrupted
PR8 influenza A virus
  survival of infected mice: survival improved
[2]; [8]
  clathrin accumulation: accumulated less clathrin
[2]; [9]
  clathrin accumulation: persisted at least until 80 minutes
[3]; 13 mg/kg intraperitoneal, 4000 EID50 PR8, Log-Rank p=0.0061, FIG. 9b
  less likely to die: about 27%
[3]; 13 mg/kg intraperitoneal, 4000 EID50 PR8, vehicle one out of 42
  mice that survived (of cohort): 12/38
[3]; 13 mg/kg intraperitoneal, 4000 EID50 PR8, vs vehicle
  recovery of weight lost: recovered the weight lost more quickly
[3]; 13 mg/kg intraperitoneal, 4000 EID50 PR8, vs vehicle, FIG. 9a
  weight loss: lost significantly less weight
[3]; 8 hours after infection, p=0.0017, FIG. 9c
  virus in lungs (plaque assay): significantly less virus
[3]; 8 hours after infection, vs vehicle
  innate immune response: more activated innate immune response
Influenza virus
  infection of A549 cells: blocked infection of A549 cells
[4]
  protection from A/California/04/2009 infection: protected (p<0.05)
[4]; 10 μM, […], vs vehicle control
  protection from A/California/04/2009 infection: significant protection
[5]; [10]
  CD63 accumulation: significantly less CD63
Phospholipase D (PLD)
  formation of PtdBuOH: inhibited
[6]
  protection from A/Brisbane/59/2007 infection: still significantly protected
  infected cells, A/Brisbane/59/2007: significantly fewer (p<0.001) infected cells
[7]; in vivo, ip, 10 mg/kg
  accumulation in liver and lung: elevated accumulation in liver and lung compared to plasma
[7]; single dose 10 mg/kg intraperitoneal, 15 min to 3 hr post-administration
  accumulation in brain: appeared to be constant
[7]; single dose 10 mg/kg intraperitoneal, FIG. 15
  exposure in tissues (brain, lung, liver) and plasma: sustained exposure in the tissues examined and in plasma over a period of at least three hours

## CCCCO [n-butanol, reference compound]
[2]; 0.6% alcohol, 80 minutes after infection, compared to tert-butanol
  clathrin accumulation: significantly less clathrin had accumulated
[4]
  protection from productive infection, A/California/04/2009: significantly protected from a productive infection
[5]; 0.6% alcohol, vs respective control (tert-butanol)
  CD63 accumulation: significantly less CD63
[6]
  protection from productive infection, A/Brisbane/59/2007: significantly protected from a productive infection
Influenza virus strains
  virus infection of A549 cells: has a significant effect on virus infection of A549 cells

## CC(C)(C)O [tert-butanol]
Influenza virus strains
  virus infection of A549 cells: does not have any effect on virus infection of A549 cells

## O=C(NCCN1CCC(n2c(=O)[nH]c3ccccc32)CC1)c1ccc2ccccc2c1 [No. 3, N-(2-(4-(2-oxo-2,3-dihydro-1H-benzo[d]imidazol-1-yl)piperidin-1-yl)ethyl)-2-naphthamide]
[2]; [8]
  clathrin accumulation: accumulated less clathrin
Influenza virus
  infection of A549 cells: blocked infection of A549 cells
[4]; 10 μM, […], vs vehicle control
  protection from A/California/04/2009 infection: significant protection
[5]; [10]
  CD63 accumulation: significantly less CD63
[6]
  protection from A/Brisbane/59/2007 infection: still significantly protected
  infected cells, A/Brisbane/59/2007: significantly fewer (p<0.001) infected cells

## C[C@@H](CN1CCC(n2c(=O)[nH]c3cc(Br)ccc32)CC1)NC(=O)[C@@H]1C[C@@H]1c1ccccc1 [No. 2, (1R,2S)-N-((S)-1-(4-(5-bromo-2-oxo-2,3-dihydro-1H-benzo[d]imidazol-1-yl)piperidin-1-yl)propan-2-yl)-2-phenylcyclopropanecarboxamide]
A/Puerto Rico/8/1934
  plaque formation: less plaque formation
[1]
  viral nucleoprotein (NP) trafficking: trafficking was disrupted
PR8 influenza A virus
  survival of infected mice: particularly profound
PR8 influenza A virus; vs vehicle (10% Tween 80), through about day 11 post-infection, FIG. 3
  weight loss associated with virus infection: trend of the test compound to protect infected mice against weight loss
[2]; [8]
  clathrin accumulation: accumulated less clathrin
[2]; [9]
  clathrin accumulation: persisted at least until 80 minutes
Influenza virus
  infection of A549 cells: blocked infection of A549 cells
[5]; [10]
  CD63 accumulation: significantly less CD63
[6]
  protection from A/Brisbane/59/2007 infection: still significantly protected
  infected cells, A/Brisbane/59/2007: significantly fewer (p<0.001) infected cells
